Measurements taken from EP4813991A1 (iLeadBMS Co., Ltd., priority 2023, dated 2025).
Like-named read-outs stand apart in the source and are kept apart here.

Legend:
[1] = test system: MDA-MB-231 breast cancer cells; test: Proliferation inhibitory activity assay against MDA-MB-231 breast cancer cells; type: cell-based; conditions: Homo sapiens, 72 hours, CellTiter Glo, relative IC50
Description: Experiments were performed using the MDA-MB-231 breast cancer cell line to measure the cell proliferation inhibitory ability of each Example compound. MDA-MB-231 cells were dispensed into a 96-well plate at 100 µL of cell suspension per well using L-15 (Invitrogen) medium containing 10 % FBS, followed by incubation in a cell incubator at 37 °C and 0 % CO2. The next day, each Example compound dissolved and diluted in DMSO across 9 concentration ranges and a DMSO control group were treated on the cells for 72 hours. After the compound treatment was completed, 100 µL of CellTiter Glo (Promega) reagent was added to each well of the 96-well plate, followed by shaking for 10 minutes and standing at room temperature for 10 minutes. Luminescence signals were measured after inserting the 96-well plate into an Envision plate reader (PerkinElmer). Relative IC50 values were calculated by fitting a dose-response curve using XLfit (IDBS Ltd) software.
The breast cancer cell proliferation inhibitory activities of the Example compounds measured by the above method were evaluated according to the following criteria, and the results are presented in Table 13.

[2] = biological target: T1, CDK12 (Homo sapiens, UniProt Q9NYV4); test: CDK12 kinase inhibitory activity assay (33P-ATP filter binding); type: biochemical
Description: (§1) Before initiating the CDK12 and CDK13 kinase reactions, each Example compound was dissolved and diluted in DMSO as a solvent across 9 concentration ranges at room temperature. The diluted solutions were then incubated with a mixture of kinase and substrate (and cofactors, if required) for 20 minutes. Next, radioisotope-labeled ATP (^33P-gamma-ATP) was added to proceed with the kinase reaction at room temperature for 120 minutes. After the reaction was completed, the reaction mixture was transferred to a filter paper that binds the radioisotope-labeled catalytic product (^33P-substrate). Unreacted ^33P-ATP was removed by washing with 0.75 % phosphoric acid, and then the radioactive phosphorylated substrate remaining on the filter paper was measured. Kinase activity data were expressed as a percentage of the kinase activity remaining in the test sample compared to a DMSO control group. The half-maximal inhibitory concentration (IC50) for each kinase was calculated using Prism (Graphpad) software.

[3] = biological target: CDK13 (Homo sapiens, UniProt Q14004); test: CDK13 kinase inhibitory activity assay (33P-ATP filter binding); type: biochemical
Description: as §1

[4] = biological target: T1, CDK12; test: Cellular CDK12 inhibitory activity assay (Ser2 phosphorylation of RNA polymerase II subunit B1 CTD in MDA-MB-231 cells); type: cell-based; design: using MDA-MB-231 breast cancer cells; endogenous in cells; host or cells: MDA-MB-231; conditions: MDA-MB-231 cells, 6 hours treatment; read-out: pRpbl CTD S2 IC50
Description: MDA-MB-231 cells were dispensed into a 96-well plate at 100 µL of cell suspension per well using L-15 (Invitrogen) medium containing 10 % FBS, followed by overnight incubation in a cell incubator at 37 °C and 0 % CO2. The next day, each Example compound dissolved in DMSO across 9 concentration ranges and a DMSO control group were treated on the MDA-MB-231 cells at 37 °C and 0 % CO2 for 6 hours. After the compound treatment, the medium in the 96-well plate was removed, and 60 µL of a fixing solution (4.0 % paraformaldehyde in PBS) was added to each well, followed by standing for 20 minutes. After removing the fixing solution and washing with PBS, 60 µL of PBS containing 0.1 % Triton X-100 was dispensed into each well, followed by shaking at room temperature for 15 minutes. After washing with PBS, 100 µL of blocking buffer was added, followed by shaking at room temperature for 1 hour. After removing the blocking buffer, primary antibodies, which are RNA polymerase II subunit B1 phospho-Ser2 (1:500, Cell signaling technology) and RNA polymerase II subunit B1 carboxy-terminal domain (1:200, Cell signaling technology), were added at 60 µL per well and reacted overnight at 4 °C. After adding 150 µL of PBS containing 0.1 % Triton X-100 and washing at least twice by shaking at room temperature for 5 minutes, 60 µL of a secondary antibody was added, followed by shaking at room temperature for 1 hour while blocking light. After adding 150 µL of PBS containing 0.1 % Triton X-100 and washing at least twice by shaking at room temperature for 5 minutes, 150 µL of PBS was added again, followed by washing at least twice by shaking at room temperature for 5 minutes. The plate was scanned using a Li-COR Odyssey machine with the wells filled with PBS. IC50 values were calculated by fitting a dose-response curve using a 4-parameter model of Prism (Graphpad) software.

[5] = kinase reaction 120 minutes, 33P-gamma-ATP, read-out: CDK13 IC50
[6] = kinase reaction 120 minutes, 33P-gamma-ATP, read-out: CDK12 IC50

Sequence of CDK13 (Q14004 whole entry, species assumed): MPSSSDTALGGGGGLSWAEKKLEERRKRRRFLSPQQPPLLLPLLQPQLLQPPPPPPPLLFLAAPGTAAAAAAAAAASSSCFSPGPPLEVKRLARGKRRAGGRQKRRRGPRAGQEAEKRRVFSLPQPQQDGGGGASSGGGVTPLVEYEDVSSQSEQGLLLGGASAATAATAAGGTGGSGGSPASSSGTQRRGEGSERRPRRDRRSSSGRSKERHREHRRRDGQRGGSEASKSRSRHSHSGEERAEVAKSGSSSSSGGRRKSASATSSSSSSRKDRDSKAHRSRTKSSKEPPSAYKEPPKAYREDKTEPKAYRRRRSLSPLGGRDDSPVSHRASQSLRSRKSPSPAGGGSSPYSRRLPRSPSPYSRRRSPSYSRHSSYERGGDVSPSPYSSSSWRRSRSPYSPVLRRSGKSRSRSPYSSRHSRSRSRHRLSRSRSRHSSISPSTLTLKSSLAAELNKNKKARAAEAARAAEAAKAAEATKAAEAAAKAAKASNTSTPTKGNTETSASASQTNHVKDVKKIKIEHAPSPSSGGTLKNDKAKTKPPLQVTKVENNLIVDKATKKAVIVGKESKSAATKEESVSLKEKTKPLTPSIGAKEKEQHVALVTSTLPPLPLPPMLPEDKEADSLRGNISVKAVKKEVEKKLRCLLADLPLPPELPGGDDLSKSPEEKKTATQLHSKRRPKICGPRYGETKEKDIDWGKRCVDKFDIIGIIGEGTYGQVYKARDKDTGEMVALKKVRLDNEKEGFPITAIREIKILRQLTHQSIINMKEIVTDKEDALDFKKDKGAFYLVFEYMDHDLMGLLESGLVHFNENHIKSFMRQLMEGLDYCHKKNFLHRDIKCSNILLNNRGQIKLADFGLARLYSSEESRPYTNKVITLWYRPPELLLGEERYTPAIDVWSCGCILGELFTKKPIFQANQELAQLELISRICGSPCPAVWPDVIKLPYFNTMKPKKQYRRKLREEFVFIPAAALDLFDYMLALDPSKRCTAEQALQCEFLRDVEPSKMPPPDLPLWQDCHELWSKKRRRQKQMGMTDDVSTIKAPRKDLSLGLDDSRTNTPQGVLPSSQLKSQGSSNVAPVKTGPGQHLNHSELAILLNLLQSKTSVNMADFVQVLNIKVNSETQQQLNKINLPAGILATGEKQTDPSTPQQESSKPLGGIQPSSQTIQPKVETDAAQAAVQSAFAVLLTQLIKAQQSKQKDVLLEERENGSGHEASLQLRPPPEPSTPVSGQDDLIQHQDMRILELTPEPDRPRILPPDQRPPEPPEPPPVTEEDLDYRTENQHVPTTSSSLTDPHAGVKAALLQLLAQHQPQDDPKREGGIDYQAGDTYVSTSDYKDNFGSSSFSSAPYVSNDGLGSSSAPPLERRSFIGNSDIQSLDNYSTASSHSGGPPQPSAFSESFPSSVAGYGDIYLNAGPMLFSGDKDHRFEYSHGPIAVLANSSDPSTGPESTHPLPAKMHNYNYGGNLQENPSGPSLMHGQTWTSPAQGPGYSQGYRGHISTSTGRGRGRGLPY
Sequence of CDK13 (O75909 whole entry partner, species assumed): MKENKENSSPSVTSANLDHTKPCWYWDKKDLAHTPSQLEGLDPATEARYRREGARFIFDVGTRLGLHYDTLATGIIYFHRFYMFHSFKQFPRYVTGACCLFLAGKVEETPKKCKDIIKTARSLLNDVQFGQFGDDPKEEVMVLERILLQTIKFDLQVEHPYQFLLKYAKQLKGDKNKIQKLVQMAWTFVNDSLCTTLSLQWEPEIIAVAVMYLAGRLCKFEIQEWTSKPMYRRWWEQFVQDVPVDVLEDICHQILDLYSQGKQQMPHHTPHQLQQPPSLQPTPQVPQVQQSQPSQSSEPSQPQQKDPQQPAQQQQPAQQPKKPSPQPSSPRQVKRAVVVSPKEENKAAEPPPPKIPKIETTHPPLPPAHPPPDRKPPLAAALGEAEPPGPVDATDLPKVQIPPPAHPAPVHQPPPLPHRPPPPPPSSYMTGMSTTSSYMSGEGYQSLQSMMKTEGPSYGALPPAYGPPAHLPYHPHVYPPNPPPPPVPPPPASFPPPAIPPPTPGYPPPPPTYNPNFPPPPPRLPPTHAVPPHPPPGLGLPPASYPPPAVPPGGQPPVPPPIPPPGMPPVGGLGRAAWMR
T1 sequence (Q9NYV4 whole entry, species assumed): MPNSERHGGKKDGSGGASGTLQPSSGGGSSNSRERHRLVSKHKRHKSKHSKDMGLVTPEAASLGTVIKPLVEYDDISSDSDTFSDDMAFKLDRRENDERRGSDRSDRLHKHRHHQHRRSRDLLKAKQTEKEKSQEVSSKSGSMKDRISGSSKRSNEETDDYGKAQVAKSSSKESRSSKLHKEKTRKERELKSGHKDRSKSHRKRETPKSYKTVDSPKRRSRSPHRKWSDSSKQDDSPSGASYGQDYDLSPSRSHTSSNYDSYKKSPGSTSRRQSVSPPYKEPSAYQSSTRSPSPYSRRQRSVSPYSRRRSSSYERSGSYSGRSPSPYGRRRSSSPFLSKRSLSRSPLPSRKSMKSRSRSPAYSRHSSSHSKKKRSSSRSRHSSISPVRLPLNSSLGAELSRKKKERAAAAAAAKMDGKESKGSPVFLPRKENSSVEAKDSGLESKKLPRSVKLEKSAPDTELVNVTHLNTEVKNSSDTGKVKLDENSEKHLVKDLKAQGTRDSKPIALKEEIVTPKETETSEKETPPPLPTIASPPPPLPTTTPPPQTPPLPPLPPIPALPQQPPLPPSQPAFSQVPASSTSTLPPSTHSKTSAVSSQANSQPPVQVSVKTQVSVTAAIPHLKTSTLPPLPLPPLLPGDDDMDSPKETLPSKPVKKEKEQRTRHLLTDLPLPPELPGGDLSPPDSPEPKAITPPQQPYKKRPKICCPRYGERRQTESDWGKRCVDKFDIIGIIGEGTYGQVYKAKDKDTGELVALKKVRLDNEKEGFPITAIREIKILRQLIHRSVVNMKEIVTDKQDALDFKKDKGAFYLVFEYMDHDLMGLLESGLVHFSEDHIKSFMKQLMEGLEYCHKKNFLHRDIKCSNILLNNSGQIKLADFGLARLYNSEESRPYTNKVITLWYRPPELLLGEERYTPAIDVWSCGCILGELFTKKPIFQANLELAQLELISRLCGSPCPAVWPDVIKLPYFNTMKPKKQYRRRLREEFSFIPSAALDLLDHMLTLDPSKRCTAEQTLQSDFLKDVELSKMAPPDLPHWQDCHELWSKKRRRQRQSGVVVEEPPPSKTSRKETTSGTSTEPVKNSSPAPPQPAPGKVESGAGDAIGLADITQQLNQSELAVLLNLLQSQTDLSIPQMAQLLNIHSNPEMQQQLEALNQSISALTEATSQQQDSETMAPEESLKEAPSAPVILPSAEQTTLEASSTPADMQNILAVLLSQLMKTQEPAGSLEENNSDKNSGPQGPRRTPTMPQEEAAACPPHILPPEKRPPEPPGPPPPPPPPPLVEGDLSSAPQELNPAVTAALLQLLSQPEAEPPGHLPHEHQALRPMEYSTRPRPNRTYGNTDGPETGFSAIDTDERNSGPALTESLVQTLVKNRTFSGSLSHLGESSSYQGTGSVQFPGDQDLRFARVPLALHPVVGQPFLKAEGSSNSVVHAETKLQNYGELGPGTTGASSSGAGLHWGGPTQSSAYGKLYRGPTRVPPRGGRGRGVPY
T1 sequence (O75909 whole entry partner, species assumed): as the sequence (O75909 whole entry partner, species assumed) above

SMILES	IC50 [1] [nM]	IC50 [2] [nM]	IC50 [3, 5] [nM]	IC50 [4] [nM]	IC50 [2, 6] [nM]	IC50 [3] [nM]
CC1(O)CC2CCC(C1)N2c1cc(NCc2nc3cc(Cl)c(Cl)cc3[nH]2)c2ncc(C(F)(F)F)n2n1 (stereo not shown) [Example 34]	50 to 500	> 500	100 to 500	< 300	–	–
NC1CN(c2cc(NCc3nc4cc(Cl)c(Cl)cc4[nH]3)c3ncc(C(F)(F)F)n3n2)C1 [Example 36]	≤ 50	–	< 100	< 300	< 100	–
N[C@@H]1CCN(c2cc(NCc3nc4ccc(F)c(F)c4[nH]3)c3ncc(C(F)(F)F)n3n2)C1 [Example 37]	≤ 50	–	< 100	< 300	< 100	–
N[C@H]1CCN(c2cc(NCc3nc4ccc(F)c(F)c4[nH]3)c3ncc(C(F)(F)F)n3n2)C1 [Example 38]	≤ 50	–	< 100	< 300	< 100	–
C[C@@H]1CN(c2cc(NCc3nc4cc(Cl)c(Cl)cc4[nH]3)c3ncc(C(F)(F)F)n3n2)C[C@H](C)N1 [Example 39, N-((5,6-dichloro-1H-benzo[d]imidazol-2-yl)methyl)-6-((3S,5R)-3,5-dimethylpiperazin-1-yl)-3-(trifluoromethyl)imidazo[1,2-b]pyridazin-8-amine]	≤ 50	–	< 100	< 300	< 100	–
FC(F)(F)c1cnc2c(NCc3nc4cc(Cl)c(Cl)cc4[nH]3)cc(N3CC4CCC3CO4)nn12 (stereo not shown) [Example 43, 6-(2-oxa-5-azabicyclo[2.2.2]octan-5-yl)-N-((5,6-dichloro-1H-benzo[d]imidazol-2-yl)methyl)-3-(trifluoromethyl)imidazo[1,2-b]pyridazin-8-amine]	50 to 500	–	100 to 500	300 to 3000	100 to 500	–
FC(F)(F)c1cnc2c(NCc3nc4cc(Cl)c(Cl)cc4[nH]3)cc(N3CC4(CNC4)C3)nn12 [Example 45, N-((5,6-dichloro-1H-benzo[d]imidazol-2-yl)methyl)-6-(2,6-diazaspiro[3.3]heptan-2-yl)-3-(trifluoromethyl)imidazo[1,2-b]pyridazin-8-amine]	≤ 50	–	< 100	< 300	100 to 500	–
OC1CC2(C1)CN(c1cc(NCc3nc4cc(Cl)c(Cl)cc4[nH]3)c3ncc(C(F)(F)F)n3n1)C2 [Example 47, 2-(8-(((5,6-dichloro-1H-benzo[d]imidazol-2-yl)methyl)amino)-3-(trifluoromethyl)imidazo[1,2-b]pyridazin-6-yl)-2-azaspiro[3.3]heptan-6-ol]	≤ 50	–	< 100	< 300	100 to 500	–
CC(C)(O)C1CN(c2cc(NCc3nc4cc(Cl)c(Cl)cc4[nH]3)c3ncc(C(F)(F)F)n3n2)C1 [Example 48, 2-(1-(8-(((5,6-dichloro-1H-benzo[d]imidazol-2-yl)methyl)amino)-3-(trifluoromethyl)imidazo[1,2-b]pyridazin-6-yl)azetidin-3-yl)propan-2-ol]	50 to 500	–	100 to 500	< 300	> 500	–
N#CC1CCN(c2cc(NCc3nc4cc(Cl)c(Cl)cc4[nH]3)c3ncc(C(F)(F)F)n3n2)C1 (stereo not shown) [Example 49, 1-(8-(((5,6-dichloro-1H-benzo[d]imidazol-2-yl)methyl)amino)-3-(trifluoromethyl)imidazo[1,2-b]pyridazin-6-yl)pyrrolidine-3-carbonitrile]	≤ 50	–	< 100	< 300	< 100	–
OC1(C2CN(c3cc(NCc4nc5cc(Cl)c(Cl)cc5[nH]4)c4ncc(C(F)(F)F)n4n3)C2)CC1 [Example 50, 1-(1-(8-(((5,6-dichloro-1H-benzo[d]imidazol-2-yl)methyl)amino)-3-(trifluoromethyl)imidazo[1,2-b]pyridazin-6-yl)azetidin-3-yl)cyclopropan-1-ol]	50 to 500	–	100 to 500	300 to 3000	100 to 500	–
CC(=O)N1CCN(c2cc(NCc3nc4cc(Cl)c(Cl)cc4[nH]3)c3ncc(C(F)(F)F)n3n2)CC1 [Example 51, 1-(4-(8-(((5,6-dichloro-1H-benzo[d]imidazol-2-yl)methyl)amino)-3-(trifluoromethyl)imidazo[1,2-b]pyridazin-6-yl)piperazin-1-yl)ethan-1-one]	≤ 50	–	< 100	< 300	< 100	–
CC1(O)CN(c2cc(NCc3nc4cc(Cl)c(Cl)cc4[nH]3)c3ncc(C(F)(F)F)n3n2)C1 [Example 52, 1-(8-(((5,6-dichloro-1H-benzo[d]imidazol-2-yl)methyl)amino)-3-(trifluoromethyl)imidazo[1,2-b]pyridazin-6-yl)-3-methylazetidin-3-ol]	≤ 50	–	< 100	< 300	100 to 500	–
CC1(O)CCN(c2cc(NCc3nc4cc(Cl)c(Cl)cc4[nH]3)c3ncc(C(F)(F)F)n3n2)CC1 [Example 53, 1-(8-(((5,6-dichloro-1H-benzo[d]imidazol-2-yl)methyl)amino)-3-(trifluoromethyl)imidazo[1,2-b]pyridazin-6-yl)-4-methylpiperidin-4-ol]	≤ 50	–	100 to 500	< 300	100 to 500	–
N#CC1CN(c2cc(NCc3nc4ccc(Cl)c(Cl)c4[nH]3)c3ncc(C(F)(F)F)n3n2)C1 [Example 55, 1-(8-(((6,7-dichloro-1H-benzo[d]imidazol-2-yl)methyl)amino)-3-(trifluoromethyl)imidazo[1,2-b]pyridazin-6-yl)azetidine-3-carbonitrile]	50 to 500	–	< 100	300 to 3000	< 100	–
N#CC1CCN(c2cc(NCc3nc4ccc(F)c(F)c4[nH]3)c3ncc(C(F)(F)F)n3n2)CC1 [Example 56, 1-(8-(((6,7-difluoro-1H-benzo[d]imidazol-2-yl)methyl)amino)-3-(trifluoromethyl)imidazo[1,2-b]pyridazin-6-yl)piperidine-4-carbonitrile]	≤ 50	–	< 100	300 to 3000	< 100	–
FC(F)(F)c1cnc2c(NCc3nc4cc(Cl)c(Cl)cc4[nH]3)cc(N3CCNCC3)nn12 [Example 57, N-((5,6-dichloro-1H-benzo[d]imidazol-2-yl)methyl)-6-(piperazin-1-yl)-3-(trifluoromethyl)imidazo[1,2-b]pyridazin-8-amine]	≤ 50	–	< 100	< 300	< 100	–
FC(F)(F)c1cnc2c(NCc3nc4cc(Cl)c(Cl)cc4[nH]3)cc(N3CC(NC4CC4)C3)nn12 [Example 58, 6-(3-(cyclopropylamino)azetidin-1-yl)-N-((5,6-dichloro-1H-benzo[d]imidazol-2-yl)methyl)-3-(trifluoromethyl)imidazo[1,2-b]pyridazin-8-amine]	≤ 50	–	100 to 500	< 300	> 500	–
N#CC1(O)CN(c2cc(NCc3nc4cc(Cl)c(Cl)cc4[nH]3)c3ncc(C(F)(F)F)n3n2)C1 [Example 59, 1-(8-(((5,6-dichloro-1H-benzo[d]imidazol-2-yl)methyl)amino)-3-(trifluoromethyl)imidazo[1,2-b]pyridazin-6-yl)-3-hydroxyazetidine-3-carbonitrile]	≤ 50	–	–	< 300	100 to 500	100 to 500
